Measurements as given in ChEMBL document CHEMBL1201862, “PubChem BioAssay data set” (2004).
The source made the active and inactive calls.

Tests used:
cells [1] = assay type: functional, cell-based
cells [2] = assay type: functional, cell-based; remark: listed apart in the source
[3] = molecular target: T1, Heat shock factor protein 1 (Mus musculus, UniProt P38532); test: enhancement of HSF1-driven luciferase signal – cell-based, NIH3T3, luminescence, dose retest, confirmation (AID 435004); assay type: functional;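 also: stress induced by proteasome inhibitor MG132 added 30 min after compound; luciferase reporter driven by HSF1 response element in NIH3T3 cells; actives raise luminescence as potentiators of the MG132 stress response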
T1 sequence (P38532 whole entry): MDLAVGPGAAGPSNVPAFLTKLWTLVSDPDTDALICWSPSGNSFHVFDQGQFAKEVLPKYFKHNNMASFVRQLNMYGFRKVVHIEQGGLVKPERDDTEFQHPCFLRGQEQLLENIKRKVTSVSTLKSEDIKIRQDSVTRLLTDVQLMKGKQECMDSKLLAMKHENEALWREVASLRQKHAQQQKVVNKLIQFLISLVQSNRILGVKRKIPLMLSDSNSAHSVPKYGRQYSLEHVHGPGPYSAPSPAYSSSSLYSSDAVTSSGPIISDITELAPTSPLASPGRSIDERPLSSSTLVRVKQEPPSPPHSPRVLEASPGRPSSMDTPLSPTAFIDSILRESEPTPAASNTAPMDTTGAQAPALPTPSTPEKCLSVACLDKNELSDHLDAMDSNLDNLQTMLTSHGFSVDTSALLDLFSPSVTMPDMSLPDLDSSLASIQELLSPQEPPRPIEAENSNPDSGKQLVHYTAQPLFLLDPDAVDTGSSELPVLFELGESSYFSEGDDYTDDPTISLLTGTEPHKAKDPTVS

Vero = test: cells; assay type: functional; conditions: Chlorocebus sabaeus
Cytochrome P450 2C19 = Cytochrome P450 2C19 (Homo sapiens, UniProt P33261); test: Cytochrome panel assay with activity outcomes. Panel member name: p450-cyp2c19 Compounds with AC50 equal or less than 10 uM are considered active; assay type: functional
Chain of Cytochrome P450 2C19 (P33261 whole entry): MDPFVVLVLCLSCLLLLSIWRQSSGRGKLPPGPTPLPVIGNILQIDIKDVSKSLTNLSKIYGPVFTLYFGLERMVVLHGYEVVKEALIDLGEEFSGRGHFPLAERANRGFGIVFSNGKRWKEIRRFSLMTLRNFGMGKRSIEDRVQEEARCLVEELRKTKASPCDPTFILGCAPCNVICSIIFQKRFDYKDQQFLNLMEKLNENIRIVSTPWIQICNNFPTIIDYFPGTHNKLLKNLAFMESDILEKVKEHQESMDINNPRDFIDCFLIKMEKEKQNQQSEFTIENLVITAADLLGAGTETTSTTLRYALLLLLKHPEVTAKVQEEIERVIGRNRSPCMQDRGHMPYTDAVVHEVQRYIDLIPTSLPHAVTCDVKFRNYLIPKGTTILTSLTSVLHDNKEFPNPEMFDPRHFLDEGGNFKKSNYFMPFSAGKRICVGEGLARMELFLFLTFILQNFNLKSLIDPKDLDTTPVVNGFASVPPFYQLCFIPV

Cytochrome P450 2D6 = Cytochrome P450 2D6 (Homo sapiens, UniProt P10635);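 also: CYP2D6 member of a cytochrome P450 panel assay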
Chain of Cytochrome P450 2D6 (P10635 whole entry): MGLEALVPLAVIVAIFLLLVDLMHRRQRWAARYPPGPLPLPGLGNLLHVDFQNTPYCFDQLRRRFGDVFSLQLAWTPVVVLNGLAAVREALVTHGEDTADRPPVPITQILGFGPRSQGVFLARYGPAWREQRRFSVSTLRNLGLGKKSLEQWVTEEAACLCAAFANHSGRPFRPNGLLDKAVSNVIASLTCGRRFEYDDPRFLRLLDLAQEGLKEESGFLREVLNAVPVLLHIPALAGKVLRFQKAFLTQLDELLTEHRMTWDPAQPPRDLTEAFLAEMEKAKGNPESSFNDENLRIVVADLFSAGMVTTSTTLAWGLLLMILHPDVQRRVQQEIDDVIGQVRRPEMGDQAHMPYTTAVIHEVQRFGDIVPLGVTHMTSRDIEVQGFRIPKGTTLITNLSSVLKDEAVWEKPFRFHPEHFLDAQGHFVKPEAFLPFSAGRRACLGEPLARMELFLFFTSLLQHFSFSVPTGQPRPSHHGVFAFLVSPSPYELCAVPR

[4] = viability of uninfected HEp-2 cells – cell-based, HTS, cytotoxicity control for RSV inhibitor project, dose response (AID 2410); assay type: functional; conditions: human respiratory syncytial virus
[5] = molecular target: T2, Ubiquitin-conjugating enzyme E2 N (Homo sapiens, UniProt P61088); assay type: functional;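 also: Dose-response confirmation in a TR-FRET assay detecting UBC13-driven polyubiquitin chain formation, inhibition measured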
T2 sequence (P61088 whole entry): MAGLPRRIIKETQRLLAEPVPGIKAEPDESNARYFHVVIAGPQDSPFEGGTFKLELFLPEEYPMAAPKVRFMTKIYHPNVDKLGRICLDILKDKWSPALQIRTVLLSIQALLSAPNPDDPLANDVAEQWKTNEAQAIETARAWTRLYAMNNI

Cytochrome P450 3A4 = Cytochrome P450 3A4 (Homo sapiens, UniProt P08684);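 also: CYP3A4 tested as one member of a cytochrome P450 panel screen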
Chain of Cytochrome P450 3A4 (P08684 whole entry): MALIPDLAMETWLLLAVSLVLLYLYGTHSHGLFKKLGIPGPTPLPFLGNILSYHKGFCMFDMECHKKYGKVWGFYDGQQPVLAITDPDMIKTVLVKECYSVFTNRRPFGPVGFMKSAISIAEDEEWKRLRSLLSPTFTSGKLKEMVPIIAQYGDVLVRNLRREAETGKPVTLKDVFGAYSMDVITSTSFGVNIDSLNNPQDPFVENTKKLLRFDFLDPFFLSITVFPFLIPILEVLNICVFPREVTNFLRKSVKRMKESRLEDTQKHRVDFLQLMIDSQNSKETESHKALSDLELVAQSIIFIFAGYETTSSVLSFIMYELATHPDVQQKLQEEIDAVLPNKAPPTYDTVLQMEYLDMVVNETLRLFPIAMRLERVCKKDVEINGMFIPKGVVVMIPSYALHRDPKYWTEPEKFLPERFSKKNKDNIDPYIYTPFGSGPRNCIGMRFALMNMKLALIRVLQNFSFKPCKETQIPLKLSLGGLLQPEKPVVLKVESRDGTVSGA

[6] = Luminescence Cell-Based Dose Confirmation HTS to Identify Activators of 5'UTR Stem-Loop Driven Alpha-Synuclein mRNA Translation in H4 Neuroglioblastoma Cells. [Related pubchem assays: 1829 (Project Summary), 1814 (Primary HTS)]; assay type: functional
[7] = Luminescence Cell-Based Dose Response HTS to Identify Activators of Luciferase Translation or Activity in H4 […] Cells. [Related pubchem assays: 1829 (Project Summary), 1814 (Primary HTS)]; assay type: functional
H4 = test: Luminescence Cell-Based Dose Response HTS to Identify Activators of 5'UTR Stem-Loop Driven Prion Protein mRNA Translation in H4 Neuroglioblastoma Cells. [Related pubchem assays: 1829 (Project Summary), 1814 (Primary HTS)]; assay type: functional; conditions: Homo sapiens
Protein skinhead-1 = molecular target: T3, Protein skinhead-1 (Caenorhabditis elegans, UniProt P34707); assay type: functional
T3 sequence (P34707 whole entry): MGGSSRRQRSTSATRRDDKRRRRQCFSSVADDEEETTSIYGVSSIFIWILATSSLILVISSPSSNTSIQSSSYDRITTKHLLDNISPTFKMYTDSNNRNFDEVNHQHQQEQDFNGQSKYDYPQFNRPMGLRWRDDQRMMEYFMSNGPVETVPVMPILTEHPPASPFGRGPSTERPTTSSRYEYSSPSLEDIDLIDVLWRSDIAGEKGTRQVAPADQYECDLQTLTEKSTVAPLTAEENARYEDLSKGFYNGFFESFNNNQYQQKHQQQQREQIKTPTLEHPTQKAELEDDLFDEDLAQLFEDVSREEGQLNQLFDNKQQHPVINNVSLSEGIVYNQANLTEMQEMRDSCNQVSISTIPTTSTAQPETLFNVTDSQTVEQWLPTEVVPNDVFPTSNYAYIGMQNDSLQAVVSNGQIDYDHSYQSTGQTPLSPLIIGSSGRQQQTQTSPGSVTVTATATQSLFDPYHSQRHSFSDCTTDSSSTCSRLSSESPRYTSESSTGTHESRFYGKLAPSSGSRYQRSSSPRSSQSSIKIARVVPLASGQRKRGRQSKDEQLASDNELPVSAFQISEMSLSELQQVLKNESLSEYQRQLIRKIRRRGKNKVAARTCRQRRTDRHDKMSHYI

[8] = test system: Streptococcus sp. 'group A'; test: Streptococcus pyogenes SK(-)GAS viability under kanamycin – luminescence, BacTiterGlo, confirmation, counter-screen for streptokinase expression inhibitor project, dose response (AID 1900); assay type: functional, organism-based
Streptokinase A = molecular target: T4, Streptokinase A (Streptococcus pyogenes serotype M1, UniProt P10520); test: viability-normalized secreted streptokinase activity reduction – plasminogen activation absorbance, OD405, dose response (AID 1914); assay type: functional, Streptococcus pyogenes M1 GAS;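 also: secreted streptokinase activity via plasminogen activation per viability signal from cell pellet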
T4 sequence (P10520 whole entry): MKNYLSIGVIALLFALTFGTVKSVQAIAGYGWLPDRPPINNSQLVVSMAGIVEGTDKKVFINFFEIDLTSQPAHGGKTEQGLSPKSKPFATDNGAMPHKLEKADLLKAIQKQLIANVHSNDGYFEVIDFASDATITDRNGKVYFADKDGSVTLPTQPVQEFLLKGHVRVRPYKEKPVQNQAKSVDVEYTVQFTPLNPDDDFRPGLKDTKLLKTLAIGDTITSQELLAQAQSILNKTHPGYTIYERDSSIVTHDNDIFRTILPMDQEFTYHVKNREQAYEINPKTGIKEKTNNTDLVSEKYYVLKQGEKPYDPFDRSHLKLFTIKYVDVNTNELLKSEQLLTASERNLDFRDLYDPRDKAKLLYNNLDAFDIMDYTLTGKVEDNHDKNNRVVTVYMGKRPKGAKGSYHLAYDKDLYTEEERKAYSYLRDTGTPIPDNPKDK

Streptococcus = test: GAS UMAA2166 growth inhibition – luminescence, BacTiterGlo, counter-screen for streptokinase expression inhibitor project, dose response (AID 1915); assay type: functional, organism-based;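 also: potency for reduction of bacterial viability or growth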

Cc1cccc(C(=O)O/N=C(\N)c2ccc(Cl)cc2)c1
EC50 (cells [1]): > 350 µM (not active)
EC50 (cells [2]): 16.7 µM (active)

CCOC(=O)c1c(C)sc2c1N(C(=O)CN(CC)CC)c1ccccc1S2
EC50 [3]: > 260 µM (inactive)

CN(C)CCCN(C(=O)c1ccco1)c1nc2ccc(Cl)cc2s1
CC50 (Vero): > 25 µM (active)

c1ccc(Nc2ncncc2-c2ccoc2)cc1
AC50 (Cytochrome P450 2C19; read-out: AC50): 15.8 µM (inconclusive)
AC50 (Cytochrome P450 2D6): 25.1 µM (inconclusive)

Cc1cc(NC(=O)c2ccccc2)n(-c2nc3ccccc3[nH]2)n1
EC50 (cells [1]): > 350 µM (not active)
EC50 (cells [2]): 63.9 µM (active)

N#C/C(C[n+]1cn(NC(=O)Nc2ccccc2)cn1)=N/O
EC50 [3]: > 260 µM (inactive)

O=[N+]([O-])c1cccc(-c2ccc3nnc(SCc4ccccn4)n3n2)c1
EC50 [3]: > 260 µM (inactive)

COCCCN(CC(=O)O)S(=O)(=O)c1cccc(Cl)c1
EC50 [3]: > 260 µM (inactive)

COc1ccccc1CCNS(=O)(=O)c1cc2c3c(c1)C(C)C(=O)N3CCC2 (centres undefined)
EC50 (cells [1]): > 350 µM (not active)
EC50 (cells [2]): > 350 µM (not active)

COc1cc(OCc2ccccc2)c(C(=O)/C=C/c2ccc3c(c2)OCO3)c(OC)c1OC
CC50 (Vero): > 25 µM (active)

Cc1cc(C=O)c(C)n1-c1ccc(NC2CCCC2)c([N+](=O)[O-])c1
AC50 (Cytochrome P450 2D6): 8.91 µM (inconclusive)

CC1=CC(=O)C=C(C)C1=NOC(=O)/C=C\c1ccccc1
EC50 [3]: > 260 µM (inactive)

Cc1cccn2c(=O)c3cc(C(=O)NC4CCCC4)c(=N)n(Cc4ccc(F)cc4)c3nc12
CC50 (Vero): > 25 µM (active)

O=C(Nc1ccc2c(c1)CCCN2C(=O)c1ccccc1)c1ccccc1Br
CC50 [4]: 10.5 µM (active)
CC50 (Vero): > 25 µM (active)

Cc1ccc(Nc2nc(CSc3nnc(-c4ccncc4)n3C)cs2)cc1
EC50 (cells [1]): > 350 µM (not active)
EC50 (cells [2]): > 350 µM (not active)

COc1cc(NC(=O)C2=C(N3CCOCC3)/C(=C\c3ccc(Br)cc3)CC2)cc(OC)c1OC
EC50 [3]: > 260 µM (inactive)

C=CCOC(=O)/C(=C\c1cccc2ccccc12)NC(=O)c1ccccc1
AC50 (Cytochrome P450 2D6): 22.4 µM (inconclusive)

Cc1ccc(C(=O)Nc2nnc(C3CCCCC3)s2)o1
EC50 [3]: 44.6 µM (active)

Cc1cccc(N(C(=O)c2snc(C(N)=O)c2N)C(C(=O)NC2CCCC2)c2ccc(C)o2)c1 (centres undefined)
IC50 [5]: > 20 µM (inactive)

Cc1ccccc1-n1c(=O)n(Cc2ccc(C(=O)O)cc2)c(=O)c2[nH]cnc21
EC50 (cells [1]): > 350 µM (not active)
EC50 (cells [2]): > 350 µM (not active)

COc1ccc(Cl)cc1C=CC=NNS(=O)(=O)c1ccc(C)cc1
CC50 (Vero): > 25 µM (active)

O=c1c2ccccc2nnn1CSc1ccc2c(c1)OCCO2
AC50 (Cytochrome P450 2D6): 28.2 µM (inconclusive)

Cc1cnc(CNc2nc(-c3ccccc3Cl)nc3ccccc23)cn1
AC50 (Cytochrome P450 2D6): 25.1 µM (inconclusive)
AC50 (Cytochrome P450 3A4): 7.94 µM (inconclusive)

CCOC(=O)N1CCN(C(=O)c2ccc3c(c2)N(Cc2ccccc2)CCS3)CC1
IC50 [5]: > 20 µM (inactive)

Cc1cc(C)cc(Oc2ccccc2/C=C\C(=O)O)c1
EC50 [3]: > 260 µM (inactive)

CSc1ccccc1-n1nnnc1SCC(=O)NCc1cccs1
EC50 [3]: > 260 µM (inactive)

Cc1ccc(Cc2cnc(NC(=O)c3cccs3)s2)cc1
AC50 (Cytochrome P450 2D6): 15.8 µM (inconclusive)

CCN1CCN(S(=O)(=O)c2ccc(Cl)nc2)CC1
AC50 (Cytochrome P450 2D6): 12.6 µM (inconclusive)

N#Cc1sc2nc(N3CCCCC3)c3c(c2c1N)CCCC3
CC50 (Vero): > 25 µM (active)

CCOc1ccc2c(=O)c(Oc3ccccc3OCC)coc2c1
EC50 [6]: 7.35 µM (active)
EC50 [7]: 7.99 µM (active)
EC50 (H4): 19.3 µM (active)
IC50 (Protein skinhead-1): > 100 µM (inactive)

CC1=NCCc2c1[nH]c1cc(O)ccc21
AC50 (Cytochrome P450 2D6): 7.94 µM (inconclusive)

CSc1nc(C)cc(Nc2ccc(O)c(CN3CCCCC3)c2)n1
AC50 (Cytochrome P450 2D6): 3.16 µM (inconclusive)

CSc1nccc(Nc2ccccc2)c1C#N
IC50 [5]: > 20 µM (inactive)

CC(=O)N1c2ccc(S(=O)(=O)NCCc3ccccc3)cc2CC1C (centres undefined)
EC50 (cells [1]): > 350 µM (not active)
EC50 (cells [2]): > 350 µM (not active)

COC(=O)c1sc(N)c(C(=O)OC)c1CSc1nc2sc3c(c2c(=O)n1C)CCC3
EC50 [3]: > 260 µM (inactive)

CC(C)(C)c1ccc(C(=O)N/N=C/c2ccccn2)cc1
EC50 [8]: 9.57 µM (active)
EC50 (Streptokinase A): > 150 µM (not active)
EC50 (Streptococcus): 29.8 µM (active)
IC50 [5]: > 20 µM (inactive)

Cc1ccc(S(=O)(=O)N[C@H]2COC(=O)C/C=C\[C@@H](C)[C@H](NS(=O)(=O)c3ccc(C)cc3)COC(=O)[C@H](C)NC(=O)C/C=C\[C@H]2C)cc1
AC50 (Cytochrome P450 2C19): inconclusive
AC50 (Cytochrome P450 2D6): 3.98 µM (inconclusive)

COc1nccc(C(F)(F)F)c1C(=O)NC(=O)Nc1ccccc1
EC50 (cells [1]): > 350 µM (not active)
EC50 (cells [2]): > 350 µM (not active)

CCNc1nc(Cl)nc(NNC(=O)C(C)Oc2ccccc2)n1 (centres undefined)
EC50 (cells [1]): > 350 µM (not active)
EC50 (cells [2]): 47 µM (active)

C=CCN(C(=O)CCC(=O)Nc1cc(C)on1)C(C(=O)NC(C)(C)C)c1cccc(OC)c1OC (centres undefined)
EC50 [3]: > 260 µM (inactive)

CC(C)c1ccc2oc(=O)cc(CN3CCOCC3)c2c1
EC50 (cells [1]): > 350 µM (not active)
EC50 (cells [2]): > 350 µM (not active)

Cn1c(Cn2nnc3ccccc32)nnc1SCC(=O)c1ccccc1F
EC50 [3]: > 260 µM (inactive)

Cc1nnc(SCc2cccc(Cl)c2)n(N)c1=O
EC50 (cells [1]): > 350 µM (not active)
EC50 (cells [2]): > 350 µM (not active)

COc1cccc(Cn2c(=O)cnc3cnc(OCc4ccccc4)nc32)c1
AC50 (Cytochrome P450 2D6): 39.8 µM (inconclusive)
